Experimental data taken from ChEMBL document CHEMBL2176953, “Synthesis and evaluation of α-thymidine analogues as novel antimalarials” (J Med Chem, 2012).

Legend:
[1] = molecular target: T1, Thymidylate kinase (Plasmodium falciparum (isolate 3D7), UniProt Q8I4S1); assay: Inhibition of recombinant Plasmodium falciparum TMPK using TMP as substrate by pyruvate kinase and lactate dehydrogenase enzyme coupled assay
T1 sequence (Q8I4S1 whole entry): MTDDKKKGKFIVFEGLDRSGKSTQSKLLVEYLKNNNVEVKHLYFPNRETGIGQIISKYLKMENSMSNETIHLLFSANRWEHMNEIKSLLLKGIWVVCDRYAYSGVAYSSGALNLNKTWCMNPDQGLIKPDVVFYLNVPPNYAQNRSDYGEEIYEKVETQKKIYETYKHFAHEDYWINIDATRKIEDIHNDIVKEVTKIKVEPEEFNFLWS

[2] = tested on: Plasmodium falciparum; assay: Antimalarial activity against erythrocytic stages of Plasmodium falciparum 3D7 infected in human O positive RBC after 48 hrs by SYBR-green assay; assay type: functional, organism-based; conditions: 3D7, 48 h
[3] = tested on: MRC5; assay: Cytotoxicity against human MRC5 cells; assay type: cell-based
[4] = Plasma protein binding in CD1 mouse after 5 hrs

`Cc1cn([C@@H]2C[C@H](O)[C@@H](CNC(=O)Nc3ccc(Cl)cc3)O2)c(=O)[nH]c1=O` gave a Ki [1] of 114 µM, an EC50 [2] of 2.6 µM and a CC50 [3] of over 50 µM.
For `Cc1cn([C@@H]2C[C@H](O)[C@@H](CNC(=O)Nc3ccc(OCc4cccc(Cl)c4)cc3)O2)c(=O)[nH]c1=O`, the EC50 [2] was 0.24 µM and the CC50 [3] was over 50 µM.
`Cc1cn([C@@H]2C[C@H](O)[C@@H](CNC(=O)Nc3ccc(OCc4ccc(Cl)cc4)cc3)O2)c(=O)[nH]c1=O` showed an EC50 [2] of 0.88 µM and a CC50 [3] of over 50 µM.
`Cc1ccc2nc(-c3ccc(NC(=O)NC[C@H]4O[C@H](n5cc(C)c(=O)[nH]c5=O)C[C@@H]4O)cc3)sc2c1` gave an EC50 [2] of 4.6 µM and a CC50 [3] of over 50 µM.
Compound `Cc1cn([C@@H]2C[C@H](O)[C@@H](CNC(=O)Nc3ccc(N4CCCCC4)cc3)O2)c(=O)[nH]c1=O` has an EC50 [2] of 0.34 µM and a fraction unbound at 5 h [4] of 0.477.
For `Cc1cn([C@@H]2C[C@H](O)[C@@H](CNC(=O)Nc3ccc(OC4CCOCC4)cc3)O2)c(=O)[nH]c1=O`, the EC50 [2] was 1.3 µM and the CC50 [3] was over 50 µM.
`Cc1cn([C@@H]2C[C@H](O)[C@@H](CNC(=S)Nc3ccc(OCc4ccccc4)cc3)O2)c(=O)[nH]c1=O` showed an EC50 [2] of 9.5 µM and a CC50 [3] of over 50 µM.
In the case of `Cc1cn([C@@H]2C[C@H](O)[C@@H](CNC(=O)Nc3ccc(OCc4ccccc4)cc3)O2)c(=O)[nH]c1=O`, the EC50 [2] is reported as 0.24 µM and the fraction unbound at 5 h [4] is reported as 0.188.
Compound `Cc1cn([C@@H]2C[C@H](O)[C@@H](CNC(=O)Nc3ccccc3COc3ccccc3)O2)c(=O)[nH]c1=O` has an EC50 [2] of 7.2 µM and a CC50 [3] of over 50 µM.
`Cc1cn([C@@H]2C[C@H](O)[C@@H](CNC(=O)Nc3cccc(COc4ccccc4)c3)O2)c(=O)[nH]c1=O` gave an EC50 [2] of 1.8 µM and a CC50 [3] of over 50 µM.
With `Cc1cn([C@@H]2C[C@H](O)[C@@H](CNC(=O)Nc3ccc(-c4ccccc4)cc3)O2)c(=O)[nH]c1=O` the EC50 [2] was 0.29 µM and the fraction unbound at 5 h [4] was 0.08.
With `COc1ccc(NC(=O)NC[C@H]2O[C@H](n3cc(C)c(=O)[nH]c3=O)C[C@@H]2O)cc1` the EC50 [2] was 2.5 µM and the CC50 [3] was over 50 µM.
Work on `Cc1cn([C@@H]2C[C@H](O)[C@@H](CNC(=O)Nc3ccc(C(C)(C)C)cc3)O2)c(=O)[nH]c1=O` yielded a Ki [1] of 167 µM, an EC50 [2] of 2.9 µM and a CC50 [3] of over 50 µM.
`Cc1cn([C@@H]2C[C@H](O)[C@@H](CNC(=O)Nc3ccc(OCc4ccccc4Cl)cc3)O2)c(=O)[nH]c1=O` showed an EC50 [2] of 0.028 µM, a fraction unbound at 5 h [4] of 0.059 and a CC50 [3] of 29 µM.
For `Cc1cn([C@H]2C[C@H](O)[C@@H](CNC(=O)Nc3ccc(N4CCCCC4)cc3)O2)c(=O)[nH]c1=O`, the EC50 [2] was 4.8 µM and the CC50 [3] was over 50 µM.
Compound `Cc1cn([C@H]2C[C@H](O)[C@@H](CNC(=O)Nc3ccc(OCc4ccccc4)cc3)O2)c(=O)[nH]c1=O` has an EC50 [2] of 4 µM and a CC50 [3] of over 50 µM.
With `Cc1cn([C@H]2C[C@H](O)[C@@H](CNC(=O)Nc3ccc(-c4ccccc4)cc3)O2)c(=O)[nH]c1=O` the EC50 [2] was 3.3 µM and the CC50 [3] was over 50 µM.
In the case of `Cc1cn([C@@H]2C[C@H](O)[C@@H](CNC(=O)Nc3ccc(-c4ccc(C(F)(F)F)nc4)cc3)O2)c(=O)[nH]c1=O`, the EC50 [2] is reported as 1.4 µM and the CC50 [3] is reported as over 50 µM.
`Cc1cn([C@@H]2C[C@H](O)[C@@H](CNC(=O)Nc3ccc(Cc4ccccc4)cc3)O2)c(=O)[nH]c1=O` showed an EC50 [2] of 1.5 µM and a CC50 [3] of over 50 µM.
`Cc1cn([C@@H]2C[C@H](O)[C@@H](CNC(=O)Nc3ccc(Oc4ccccc4)cc3)O2)c(=O)[nH]c1=O` gave an EC50 [2] of 0.24 µM, a fraction unbound at 5 h [4] of 0.095 and a CC50 [3] of 44 µM.
`Cc1cn([C@@H]2C[C@H](O)[C@@H](CNC(=O)Nc3cccc(Cl)c3)O2)c(=O)[nH]c1=O` showed a Ki [1] of 106 µM, an EC50 [2] of 4.8 µM and a CC50 [3] of over 50 µM.
Work on `Cc1cn([C@@H]2C[C@H](O)[C@@H](CNC(=O)Nc3ccc(Br)cc3)O2)c(=O)[nH]c1=O` yielded a Ki [1] of over 1000 µM, an EC50 [2] of 1.5 µM and a CC50 [3] of over 50 µM.
`Cc1cn([C@@H]2C[C@H](O)[C@@H](CNC(=O)Nc3ccc(Cl)c(C(F)(F)F)c3)O2)c(=O)[nH]c1=O` gave a Ki [1] of 88 µM, an EC50 [2] of 9 µM and a CC50 [3] of over 50 µM.
Work on `Cc1cn([C@@H]2C[C@H](O)[C@@H](CNC(=S)Nc3ccc(Cl)c(C(F)(F)F)c3)O2)c(=O)[nH]c1=O` yielded a Ki [1] of 31 µM, an EC50 [2] of 2.3 µM and a CC50 [3] of over 50 µM.
With `Cc1cn([C@@H]2C[C@H](O)[C@@H](CNC(=S)Nc3ccc(Cl)cc3)O2)c(=O)[nH]c1=O` the Ki [1] was 90 µM, the EC50 [2] was 13 µM and the CC50 [3] was over 50 µM.
